According to PubChem BioAssay AID2060602 (Molecular Pharmacology Branch, DTP, NCI, 2025):

System: 648629-189-R-J1-PDC complex spheroids viability
Assay: Anticancer human tumor 648629-189-R-J1-PDC patient-derived bladder carcinoma cell line growth inhibition [CLK]
Details: for IC50: curve of first compound; for viability, T/C: stronger effect = lower value
Summary of the method: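 Multi-cell-type spheroids combined patient-derived tumor cells with HUVEC endothelial cells and human mesenchymal stem cells. Paired agents were dosed in half-log steps down from about clinical Cmax, or from 10 microM where Cmax was unknown.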

[1] = second compound 0.0316 µM, first compound 0.0316 µM
[2] = second compound 0.0316 µM, first compound 0.1 µM
[3] = second compound 0.0316 µM, first compound 0.316 µM
[4] = second compound 0.0316 µM, first compound 1 µM
[5] = second compound 0.0316 µM, first compound 3.16 µM
[6] = second compound 0.0316 µM, first compound 10 µM
[7] = second compound 0.1 µM, first compound 0.0316 µM
[8] = second compound 0.1 µM, first compound 0.1 µM
[9] = second compound 0.1 µM, first compound 0.316 µM
[10] = second compound 0.1 µM, first compound 1 µM
[11] = second compound 0.1 µM, first compound 3.16 µM
[12] = second compound 0.1 µM, first compound 10 µM
[13] = second compound 0.316 µM, first compound 0.0316 µM
[14] = second compound 0.316 µM, first compound 0.1 µM
[15] = second compound 0.316 µM, first compound 0.316 µM
[16] = second compound 0.316 µM, first compound 1 µM
[17] = second compound 0.316 µM, first compound 3.16 µM
[18] = second compound 0.316 µM, first compound 10 µM
[19] = second compound 1 µM, first compound 0.0316 µM
[20] = second compound 1 µM, first compound 0.1 µM
[21] = second compound 1 µM, first compound 0.316 µM
[22] = second compound 1 µM, first compound 1 µM
[23] = second compound 1 µM, first compound 3.16 µM
[24] = second compound 1 µM, first compound 10 µM
[25] = second compound 3.16 µM, first compound 0.0316 µM
[26] = second compound 3.16 µM, first compound 0.1 µM
[27] = second compound 3.16 µM, first compound 0.316 µM
[28] = second compound 3.16 µM, first compound 1 µM
[29] = second compound 3.16 µM, first compound 3.16 µM
[30] = second compound 3.16 µM, first compound 10 µM
[31] = second compound 10 µM, first compound 0.0316 µM
[32] = second compound 10 µM, first compound 0.1 µM
[33] = second compound 10 µM, first compound 0.316 µM
[34] = second compound 10 µM, first compound 1 µM
[35] = second compound 10 µM, first compound 3.16 µM
[36] = second compound 10 µM, first compound 10 µM
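Throughout, for viability, T/C: drug exposure lasted seven days before viability readout; 100% = DMSO vehicle control wells.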

Compound: CC(=O)O[C@H]1C(=O)[C@@]2(C)[C@H]([C@H](OC(=O)c3ccccc3)[C@]3(O)C[C@H](OC(=O)[C@H](O)[C@@H](NC(=O)c4ccccc4)c4ccccc4)C(C)=C1C3(C)C)[C@]1(OC(C)=O)CO[C@@H]1C[C@@H]2O + CN1CCN(c2cc(C(=O)Nc3cc4cc(-c5cnn(C)c5)ccc4cn3)ccn2)CC1
- IC50 (second compound 0.0316 µM): < 31.6 nM
- IC50 (second compound 0.1 µM): < 31.6 nM
- IC50 (second compound 0.316 µM): < 31.6 nM
- IC50 (second compound 1 µM): < 31.6 nM
- IC50 (second compound 3.16 µM): < 31.6 nM
- IC50 (second compound 10 µM): < 31.6 nM
- viability, T/C [1]: 10.9%
- viability, T/C [2]: 8.37%
- viability, T/C [3]: 9.02%
- viability, T/C [4]: 10.6%
- viability, T/C [5]: 7.39%
- viability, T/C [6]: 9.59%
- viability, T/C [7]: 7.2%
- viability, T/C [8]: 8.42%
- viability, T/C [9]: 6.79%
- viability, T/C [10]: 7.78%
- viability, T/C [11]: 8.57%
- viability, T/C [12]: 9.47%
- viability, T/C [13]: 9.01%
- viability, T/C [14]: 9.65%
- viability, T/C [15]: 10.1%
- viability, T/C [16]: 9.51%
- viability, T/C [17]: 8.91%
- viability, T/C [18]: 11.2%
- viability, T/C [19]: 0.14%
- viability, T/C [20]: 0.13%
- viability, T/C [21]: 0.87%
- viability, T/C [22]: 0.11%
- viability, T/C [23]: 0.47%
- viability, T/C [24]: 0.64%
- viability, T/C [25]: 0.07%
- viability, T/C [26]: 1.18%
- viability, T/C [27]: 0.13%
- viability, T/C [28]: 0.09%
- viability, T/C [29]: 0.11%
- viability, T/C [30]: 0.1%
- viability, T/C [31]: 0.1%
- viability, T/C [32]: 0.13%
- viability, T/C [33]: 0.2%
- viability, T/C [34]: 0.17%
- viability, T/C [35]: 1.53%
- viability, T/C [36]: 0.16%

Compound: COc1cccc2c1C(=O)c1c(O)c3c(c(O)c1C2=O)CC(O)(C(=O)CO)CC3OC1CC(N)C(O)C(C)O1 (stereo not drawn) + CN1CCN(c2cc(C(=O)Nc3cc4cc(-c5cnn(C)c5)ccc4cn3)ccn2)CC1
- IC50 (second compound 0.0316 µM): < 31.6 nM
- IC50 (second compound 0.1 µM): < 31.6 nM
- IC50 (second compound 0.316 µM): < 31.6 nM
- IC50 (second compound 1 µM): < 31.6 nM
- IC50 (second compound 3.16 µM): < 31.6 nM
- IC50 (second compound 10 µM): < 31.6 nM
- viability, T/C [1]: 22.1%
- viability, T/C [2]: 17.5%
- viability, T/C [3]: 7.83%
- viability, T/C [4]: 0.53%
- viability, T/C [5]: 0.16%
- viability, T/C [6]: 1.13%
- viability, T/C [7]: 16.5%
- viability, T/C [8]: 14.2%
- viability, T/C [9]: 5%
- viability, T/C [10]: 0.45%
- viability, T/C [11]: 0.14%
- viability, T/C [12]: 0.19%
- viability, T/C [13]: 16.5%
- viability, T/C [14]: 13.5%
- viability, T/C [15]: 4.02%
- viability, T/C [16]: 0.15%
- viability, T/C [17]: 0.1%
- viability, T/C [18]: 0.12%
- viability, T/C [19]: 0.16%
- viability, T/C [20]: 0.14%
- viability, T/C [21]: 0.14%
- viability, T/C [22]: 0.08%
- viability, T/C [23]: 0.11%
- viability, T/C [24]: 0.08%
- viability, T/C [25]: 0.06%
- viability, T/C [26]: 0.1%
- viability, T/C [27]: 0.09%
- viability, T/C [28]: 0.07%
- viability, T/C [29]: 0.09%
- viability, T/C [30]: 0.08%
- viability, T/C [31]: 0.05%
- viability, T/C [32]: 0.61%
- viability, T/C [33]: 0.11%
- viability, T/C [34]: 0.12%
- viability, T/C [35]: 0.11%
- viability, T/C [36]: 0.1%

Compound: C#Cc1c(F)ccc2cc(O)cc(-c3ncc4c(N5CC6CCC(C5)N6)nc(OCC56CCCN5CC(F)C6)nc4c3F)c12 (stereo not drawn) + CN1CCN(c2cc(C(=O)Nc3cc4cc(-c5cnn(C)c5)ccc4cn3)ccn2)CC1
- IC50 (second compound 0.0316 µM): > 10000 nM
- IC50 (second compound 0.1 µM): > 10000 nM
- IC50 (second compound 0.316 µM): 3620 nM
- IC50 (second compound 1 µM): < 31.6 nM
- IC50 (second compound 3.16 µM): < 31.6 nM
- IC50 (second compound 10 µM): < 31.6 nM
- viability, T/C [1]: 122%
- viability, T/C [2]: 113%
- viability, T/C [3]: 103%
- viability, T/C [4]: 122%
- viability, T/C [5]: 118%
- viability, T/C [6]: 105%
- viability, T/C [7]: 102%
- viability, T/C [8]: 104%
- viability, T/C [9]: 99.1%
- viability, T/C [10]: 117%
- viability, T/C [11]: 99.5%
- viability, T/C [12]: 98%
- viability, T/C [13]: 50.1%
- viability, T/C [14]: 49.4%
- viability, T/C [15]: 50.3%
- viability, T/C [16]: 54.3%
- viability, T/C [17]: 53%
- viability, T/C [18]: 39.9%
- viability, T/C [19]: 0.6%
- viability, T/C [20]: 0.88%
- viability, T/C [21]: 0.41%
- viability, T/C [22]: 0.41%
- viability, T/C [23]: 0.51%
- viability, T/C [24]: 0.64%
- viability, T/C [25]: 0.13%
- viability, T/C [26]: 0.2%
- viability, T/C [27]: 0.15%
- viability, T/C [28]: 0.14%
- viability, T/C [29]: 0.15%
- viability, T/C [30]: 0.15%
- viability, T/C [31]: 0.36%
- viability, T/C [32]: 0.22%
- viability, T/C [33]: 0.15%
- viability, T/C [34]: 0.19%
- viability, T/C [35]: 0.2%
- viability, T/C [36]: 0.16%

Compound: CCCS(=O)(=O)Nc1ccc(F)c(C(=O)c2c[nH]c3ncc(-c4ccc(Cl)cc4)cc23)c1F + CNC(=O)c1ccc(Nc2nc(OC3CCCC3)c3c(-c4ccc5nc(C)oc5c4)c[nH]c3n2)c(OC)c1
- IC50 (second compound 0.0316 µM): 6250 nM
- IC50 (second compound 0.1 µM): 5910 nM
- IC50 (second compound 0.316 µM): < 31.6 nM
- IC50 (second compound 1 µM): < 31.6 nM
- IC50 (second compound 3.16 µM): < 31.6 nM
- IC50 (second compound 10 µM): < 31.6 nM
- viability, T/C [1]: 117%
- viability, T/C [2]: 104%
- viability, T/C [3]: 111%
- viability, T/C [4]: 89.9%
- viability, T/C [5]: 98.7%
- viability, T/C [6]: 18.2%
- viability, T/C [7]: 75.2%
- viability, T/C [8]: 83.9%
- viability, T/C [9]: 94.8%
- viability, T/C [10]: 94.5%
- viability, T/C [11]: 105%
- viability, T/C [12]: 15.8%
- viability, T/C [13]: 27.9%
- viability, T/C [14]: 24.1%
- viability, T/C [15]: 33.6%
- viability, T/C [16]: 31.2%
- viability, T/C [17]: 27.6%
- viability, T/C [18]: 7.72%
- viability, T/C [19]: 19.7%
- viability, T/C [20]: 20.6%
- viability, T/C [21]: 23.2%
- viability, T/C [22]: 17.9%
- viability, T/C [23]: 21%
- viability, T/C [24]: 9.33%
- viability, T/C [25]: 16.6%
- viability, T/C [26]: 21.2%
- viability, T/C [27]: 19.1%
- viability, T/C [28]: 20.2%
- viability, T/C [29]: 20.9%
- viability, T/C [30]: 11.3%
- viability, T/C [31]: 20.6%
- viability, T/C [32]: 21%
- viability, T/C [33]: 19.1%
- viability, T/C [34]: 18.9%
- viability, T/C [35]: 18.7%
- viability, T/C [36]: 8.45%
